Literature values as cited in US9199026B2, “Modular extracorporeal systems and methods for treating blood-borne diseases” (SOMERSET GROUP ENTERPRISES, INC., priority 2011, dated 2015).

Legend:
[1] = tested on: Listeria; conditions: carbonation volume about 2, about 35° C., pressure up to about 350 MPa, about 300 seconds
[2] = tested on: pathogen; conditions: pH 6.0 compared to pH 7.4
[3] = at acidic pH
[4] = tested on: S. aureus; conditions: basic vs slightly acidic pH
[5] = tested on: MRSA; conditions: raised oxygen levels

## O=C=O [CO2, Carbon dioxide]
[1]
  effect on inactivation of Listeria: enhanced the inactivation of Listeria

## N#Cc1c(N2C[C@@H]3NCCO[C@H]3C2)c(F)cc2c(=O)c(C(=O)O)cn(C3CC3)c12 [Finafloxacin, finafloxacin]
[2]
  increase in activity (lowering of the MIC): 4- to 8 fold

## Nc1nc(-n2cc(C(=O)O)c(=O)c3cc(F)c(N4CC(O)C4)c(Cl)c32)c(F)cc1F [delafloxacin]
[3]
  fraction under a neutral form: 50%

## CN[C@H](CC(C)C)C(=O)N[C@H]1C(=O)N[C@@H](CC(N)=O)C(=O)N[C@H]2C(=O)N[C@H]3C(=O)N[C@H](C(=O)N[C@H](C(=O)O)c4cc(O)cc(O)c4-c4cc3ccc4O)[C@H](O)c3ccc(c(Cl)c3)Oc3cc2cc(c3O[C@@H]2O[C@H](CO)[C@@H](O)[C@H](O)[C@H]2O[C@H]2C[C@](C)(N)[C@H](O)[C@H](C)O2)Oc2ccc(cc2Cl)[C@H]1O [vancomycin]
[4]
  killing S. aureus, basic versus slightly acidic conditions: killing S. aureus under basic conditions better than under slightly acidic conditions
[5]
  effect of raising oxygen levels on resistance of MRSA: decreases the resistance of MRSA to vancomycin
